Measured values taken from ChEMBL document CHEMBL5143723, “Orally Bioavailable Enzymatic Inhibitor of CD38, MK-0159, Protects against Ischemia/Reperfusion Injury in the Murine Heart” (J Med Chem, 2022).
In brackets after ≈: the same amount, converted by molar mass. Each block holds one molecule with its values, some of them ahead of it. Activity calls are given as the source filed them. The calls are words filed in the database; no cut-off is given here.

Legend:
[1] = molecular target: T1, ADP-ribosyl cyclase/cyclic ADP-ribose hydrolase 1 (Homo sapiens, UniProt P28907)
T1 sequence (P28907 whole entry): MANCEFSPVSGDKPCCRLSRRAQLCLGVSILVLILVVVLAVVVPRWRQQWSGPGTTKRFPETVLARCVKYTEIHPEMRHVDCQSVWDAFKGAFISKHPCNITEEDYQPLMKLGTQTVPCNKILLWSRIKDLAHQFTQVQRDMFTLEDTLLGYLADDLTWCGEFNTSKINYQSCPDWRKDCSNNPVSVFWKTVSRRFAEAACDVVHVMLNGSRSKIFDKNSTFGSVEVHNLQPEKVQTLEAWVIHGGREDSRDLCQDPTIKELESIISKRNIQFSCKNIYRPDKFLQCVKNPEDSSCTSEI
Description: Inhibition of human his tagged CD38 using N6-etheno-NAD as substrate by fluorescence microplate reader assay

[2] = Half life in CD-1 mouse at 3 mg/kg, po; format: ADME, organism-based; details: in vivo
CYP2D6 = CYP2D6 (Homo sapiens, UniProt P10635); assay: Inhibition of CYP2D6 (unknown origin) at 10 uM relative to control; format: ADME
[3] = Apparent permeability of compound across basolateral to apical side in human Caco-2 cells; format: ADME, cell-based
[4] = Half life in non-human primates at 1 mg/kg, po; format: ADME, organism-based; details: in vivo
[5] = Cmax in Sprague-Dawley rat at 10 mg/kg, po; format: ADME, organism-based; set-up: dose 10 mg/kg, route po; details: in vivo
[6] = Thermodynamic aqueous solubility of the compound; format: physicochemical; details: buffer; read-out: Therm_solubility
Mus musculus [7] = species: Mus musculus; details: C57BL/6, dose 30.0 mg/kg, route po, time 4.0 hrs
Mus musculus [8] = species: Mus musculus; details: C57BL/6, dose 30.0 mg/kg, route po, time 4.0 hrs; remark: listed apart in the source
[9] = Half life in Sprague-Dawley rat at 1 mg/kg, iv; format: ADME, organism-based; details: in vivo
[10] = In vivo inhibition of CD38 in po dosed mouse assessed as reduction in ADPR level in blood mg/kg measured after 6 hrs; format: functional, organism-based
[11] = Plasma protein binding in rat; format: ADME, cell-free; details: read-out: PPB (converted)
[12] = Half life in Sprague-Dawley rat at 10 mg/kg, po; format: ADME, organism-based; details: in vivo
[13] = molecular target: T2, ADP-ribosyl cyclase/cyclic ADP-ribose hydrolase 1 (Rattus norvegicus, UniProt Q64244); assay: Inhibition of rat CD38 using N6-etheno-NAD as substrate by fluorescence microplate reader assay
T2 sequence (Q64244 whole entry): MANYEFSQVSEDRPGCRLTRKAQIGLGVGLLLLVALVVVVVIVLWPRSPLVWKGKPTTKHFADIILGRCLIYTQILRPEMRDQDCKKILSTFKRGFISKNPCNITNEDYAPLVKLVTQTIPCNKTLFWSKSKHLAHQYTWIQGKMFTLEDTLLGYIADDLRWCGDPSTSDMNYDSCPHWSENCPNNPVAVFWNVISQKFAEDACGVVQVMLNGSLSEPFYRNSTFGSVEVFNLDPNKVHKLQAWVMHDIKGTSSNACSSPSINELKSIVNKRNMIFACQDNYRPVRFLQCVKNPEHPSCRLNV

[14] = Apparent permeability of compound across apical to basal membrane in human Caco-2 cells; format: ADME, cell-based
[15] = AUC in CD-1 mouse at 1 mg/kg, iv; format: ADME, organism-based; set-up: dose 1 mg/kg, route iv; details: in vivo
Mus musculus [16] = species: Mus musculus; details: dose 3-30 mg/kg, route po, time 6.0 hrs
[17] = Plasma concentration in CD1 mouse at 10 to 90 mg/kg, via oral gavage by LC-MS/MS analysis; format: ADME, organism-based; details: in vivo, DDE = dose-dependent effect, dose 10-90 mg/kg
Mus musculus [18] = species: Mus musculus; details: dose 3-30 mg/kg, route po, time 6.0 hrs; remark: listed apart in the source
[19] = Plasma protein binding in mouse; format: ADME, cell-free; details: read-out: PPB (converted)
CYP2C19 = CYP2C19 (Homo sapiens, UniProt P33261); assay: Inhibition of CYP2C19 (unknown origin) at 10 uM relative to control; format: ADME
[20] = Cmax in non-human primates at 1 mg/kg, po; format: ADME, organism-based; set-up: dose 1 mg/kg, route po; details: in vivo
[21] = AUC in CD-1 mouse at 3 mg/kg, po; format: ADME, organism-based; set-up: dose 3 mg/kg, route po; details: in vivo
[22] = Volume of distribution at steady state in Sprague-Dawley rat at 1 mg/kg, iv; format: ADME, organism-based; details: in vivo
[23] = AUC in Sprague-Dawley rat at 10 mg/kg, po; format: ADME, organism-based; set-up: dose 10 mg/kg, route po; details: in vivo
[24] = AUC in non-human primates at 1 mg/kg, po; format: ADME, organism-based; set-up: dose 1 mg/kg, route po; details: in vivo
hERG = hERG (Homo sapiens, UniProt Q12809); assay: Inhibition of hERG (unknown origin) at 10 uM by patch clamp method; format: toxicity
[25] = Volume of distribution at steady state in CD-1 mouse at 1 mg/kg, iv; format: ADME, organism-based; details: in vivo
[26] = Drug exposure in mouse plasma assessed as AUC of drug at 3 mg/kg, po; format: ADME, organism-based; set-up: dose 3 mg/kg, route po
[27] = Kinetic aqueous solubility of the compound; format: physicochemical; details: buffer; read-out: Kinetic_solubility
[28] = Volume of distribution at steady state in non-human primates at 1 mg/kg, iv; format: ADME, organism-based; details: in vivo, read-out: Vdss
CYP1A2 = molecular target: T3, CYP1A2 (Homo sapiens, UniProt P05177); assay: Inhibition of CYP1A2 (unknown origin) at 10 uM relative to control; format: ADME
T3 sequence (P05177 whole entry): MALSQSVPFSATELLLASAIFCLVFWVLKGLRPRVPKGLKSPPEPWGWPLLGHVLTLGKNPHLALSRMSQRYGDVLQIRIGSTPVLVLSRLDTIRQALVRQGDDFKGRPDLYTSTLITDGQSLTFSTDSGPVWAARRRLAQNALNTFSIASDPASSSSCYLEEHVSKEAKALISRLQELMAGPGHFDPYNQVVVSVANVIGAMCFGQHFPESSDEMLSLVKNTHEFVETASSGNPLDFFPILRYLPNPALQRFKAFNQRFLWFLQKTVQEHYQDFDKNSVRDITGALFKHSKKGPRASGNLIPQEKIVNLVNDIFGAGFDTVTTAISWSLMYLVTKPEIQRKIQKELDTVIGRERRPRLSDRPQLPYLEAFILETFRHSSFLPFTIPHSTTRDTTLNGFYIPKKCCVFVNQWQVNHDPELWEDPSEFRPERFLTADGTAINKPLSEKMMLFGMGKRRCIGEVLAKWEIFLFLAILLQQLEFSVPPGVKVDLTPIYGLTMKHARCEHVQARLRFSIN

[29] = In vivo inhibition of CD38 in po dosed mouse assessed as reduction in ADPR level in heart measured after 6 hrs; format: functional, organism-based
Mus musculus [30] = species: Mus musculus; details: dose 3-30 mg/kg, route po, time 6.0 hrs; remark: listed apart in the source
[31] = Plasma concentration in Sprague-Dawley rat at 10 to 90 mg/kg, via oral gavage by LC-MS/MS analysis; format: ADME, organism-based; details: in vivo, DDE = dose-dependent effect, dose 10-90 mg/kg
CYP2C9 = CYP2C9 (Homo sapiens, UniProt P11712); assay: Inhibition of CYP2C9 (unknown origin) at 10 uM relative to control; format: ADME
[32] = AUC in Sprague-Dawley rat at 1 mg/kg, iv; format: ADME, organism-based; set-up: dose 1 mg/kg, route iv; details: in vivo
Mus musculus [33] = species: Mus musculus; details: C57BL/6, dose 30.0 mg/kg, route po, time 4.0 hrs; remark: listed apart in the source
[34] = molecular target: T4, ADP-ribosyl cyclase/cyclic ADP-ribose hydrolase 1 (Mus musculus, UniProt P56528); assay: Inhibition of mouse his tagged CD38 using N6-etheno-NAD as substrate by fluorescence microplate reader assay
T4 sequence (P56528 whole entry): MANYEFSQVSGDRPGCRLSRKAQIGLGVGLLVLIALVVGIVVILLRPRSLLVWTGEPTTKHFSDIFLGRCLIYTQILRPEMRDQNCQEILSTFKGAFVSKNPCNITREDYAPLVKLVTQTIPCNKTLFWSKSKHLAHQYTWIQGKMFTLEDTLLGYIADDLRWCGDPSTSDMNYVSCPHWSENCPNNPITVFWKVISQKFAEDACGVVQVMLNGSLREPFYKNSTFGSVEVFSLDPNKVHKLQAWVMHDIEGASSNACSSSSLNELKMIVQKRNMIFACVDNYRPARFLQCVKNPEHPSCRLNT

[35] = Plasma protein binding in human; format: ADME, cell-free; details: read-out: PPB (converted)
CYP2C8 = molecular target: T5, CYP2C8 (Homo sapiens, UniProt P10632); assay: Inhibition of CYP2C8 (unknown origin) at 10 uM relative to control; format: ADME
T5 sequence (P10632 whole entry): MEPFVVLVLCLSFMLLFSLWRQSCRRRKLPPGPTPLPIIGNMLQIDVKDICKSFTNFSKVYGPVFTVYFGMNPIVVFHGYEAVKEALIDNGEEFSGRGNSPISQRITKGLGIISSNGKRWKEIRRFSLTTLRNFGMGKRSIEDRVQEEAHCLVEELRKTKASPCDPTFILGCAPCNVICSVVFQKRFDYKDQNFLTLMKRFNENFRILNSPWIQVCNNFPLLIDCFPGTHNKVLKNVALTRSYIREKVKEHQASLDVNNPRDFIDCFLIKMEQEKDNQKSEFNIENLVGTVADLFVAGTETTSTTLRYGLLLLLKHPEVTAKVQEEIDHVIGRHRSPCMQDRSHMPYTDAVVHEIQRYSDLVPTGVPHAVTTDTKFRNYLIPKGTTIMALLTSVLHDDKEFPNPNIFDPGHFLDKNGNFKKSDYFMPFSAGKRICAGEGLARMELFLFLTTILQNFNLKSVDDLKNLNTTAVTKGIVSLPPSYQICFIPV

[36] = Half life in non-human primates at 1 mg/kg, iv; format: ADME, organism-based; details: in vivo
[37] = AUC in non-human primates at 1 mg/kg, iv; format: ADME, organism-based; set-up: dose 1 mg/kg, route iv; details: in vivo
[38] = Oral bioavailability in non-human primates at 1 mg/kg; format: ADME, organism-based; details: in vivo
Mus musculus [39] = species: Mus musculus; details: dose 3-30 mg/kg, route po, time 6.0 hrs; remark: listed apart in the source
[40] = Half life in CD-1 mouse at 1 mg/kg, iv; format: ADME, organism-based; details: in vivo
[41] = Cmax in CD-1 mouse at 3 mg/kg, po; format: ADME, organism-based; set-up: dose 3 mg/kg, route po; details: in vivo
Mus musculus [42] = species: Mus musculus; details: C57BL/6, dose 30.0 mg/kg, route po
Description: In vivo inhibition of CD38 in myocardial ischemia/reperfusion induced C57BL/6 mouse injury model assessed as change in cardiac NAD+ level at 30 mg/kg via oral gavage

hERG, sequence (Q12809 whole entry): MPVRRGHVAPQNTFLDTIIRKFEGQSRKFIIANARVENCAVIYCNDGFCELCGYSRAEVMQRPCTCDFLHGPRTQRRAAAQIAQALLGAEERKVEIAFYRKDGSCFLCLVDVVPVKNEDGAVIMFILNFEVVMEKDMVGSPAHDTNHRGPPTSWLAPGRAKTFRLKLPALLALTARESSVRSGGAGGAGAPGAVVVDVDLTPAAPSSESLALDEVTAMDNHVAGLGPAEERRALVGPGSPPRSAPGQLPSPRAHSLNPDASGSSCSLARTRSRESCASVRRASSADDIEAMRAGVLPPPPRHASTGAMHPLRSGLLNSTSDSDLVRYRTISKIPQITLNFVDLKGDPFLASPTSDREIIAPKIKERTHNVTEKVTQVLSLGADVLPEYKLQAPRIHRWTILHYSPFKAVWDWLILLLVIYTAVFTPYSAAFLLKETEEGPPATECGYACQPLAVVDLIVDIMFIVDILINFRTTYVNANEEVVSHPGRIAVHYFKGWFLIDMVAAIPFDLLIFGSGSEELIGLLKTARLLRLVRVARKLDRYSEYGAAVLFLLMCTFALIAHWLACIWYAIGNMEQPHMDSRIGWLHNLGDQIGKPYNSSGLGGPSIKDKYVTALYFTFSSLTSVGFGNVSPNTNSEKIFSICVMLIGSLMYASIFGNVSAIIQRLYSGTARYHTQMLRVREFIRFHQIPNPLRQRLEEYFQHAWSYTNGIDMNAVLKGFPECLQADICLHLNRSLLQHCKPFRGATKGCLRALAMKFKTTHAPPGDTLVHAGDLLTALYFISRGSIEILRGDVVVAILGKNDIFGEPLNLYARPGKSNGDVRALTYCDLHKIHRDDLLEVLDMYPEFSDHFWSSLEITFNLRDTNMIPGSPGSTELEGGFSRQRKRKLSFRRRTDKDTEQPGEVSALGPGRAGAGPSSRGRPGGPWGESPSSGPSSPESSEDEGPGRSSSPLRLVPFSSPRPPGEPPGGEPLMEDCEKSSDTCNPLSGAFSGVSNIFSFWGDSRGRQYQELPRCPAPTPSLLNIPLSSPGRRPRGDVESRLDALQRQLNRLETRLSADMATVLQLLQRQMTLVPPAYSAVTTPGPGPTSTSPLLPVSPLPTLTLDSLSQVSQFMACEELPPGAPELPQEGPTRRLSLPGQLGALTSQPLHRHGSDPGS
CYP2C9, sequence (P11712 whole entry): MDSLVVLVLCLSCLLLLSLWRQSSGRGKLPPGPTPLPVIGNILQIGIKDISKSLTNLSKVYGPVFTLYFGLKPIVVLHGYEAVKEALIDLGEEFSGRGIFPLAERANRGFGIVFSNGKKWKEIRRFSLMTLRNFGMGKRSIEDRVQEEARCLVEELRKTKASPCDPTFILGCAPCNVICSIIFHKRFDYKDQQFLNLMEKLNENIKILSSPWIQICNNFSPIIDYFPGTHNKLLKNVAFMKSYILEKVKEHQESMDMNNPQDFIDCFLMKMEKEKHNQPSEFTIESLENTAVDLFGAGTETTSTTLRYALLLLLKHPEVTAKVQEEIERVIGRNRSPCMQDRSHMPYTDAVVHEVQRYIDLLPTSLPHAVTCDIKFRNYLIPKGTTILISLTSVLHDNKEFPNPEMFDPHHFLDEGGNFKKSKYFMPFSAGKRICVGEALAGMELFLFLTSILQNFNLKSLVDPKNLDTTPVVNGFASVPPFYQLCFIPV
CYP2D6, sequence (P10635 whole entry): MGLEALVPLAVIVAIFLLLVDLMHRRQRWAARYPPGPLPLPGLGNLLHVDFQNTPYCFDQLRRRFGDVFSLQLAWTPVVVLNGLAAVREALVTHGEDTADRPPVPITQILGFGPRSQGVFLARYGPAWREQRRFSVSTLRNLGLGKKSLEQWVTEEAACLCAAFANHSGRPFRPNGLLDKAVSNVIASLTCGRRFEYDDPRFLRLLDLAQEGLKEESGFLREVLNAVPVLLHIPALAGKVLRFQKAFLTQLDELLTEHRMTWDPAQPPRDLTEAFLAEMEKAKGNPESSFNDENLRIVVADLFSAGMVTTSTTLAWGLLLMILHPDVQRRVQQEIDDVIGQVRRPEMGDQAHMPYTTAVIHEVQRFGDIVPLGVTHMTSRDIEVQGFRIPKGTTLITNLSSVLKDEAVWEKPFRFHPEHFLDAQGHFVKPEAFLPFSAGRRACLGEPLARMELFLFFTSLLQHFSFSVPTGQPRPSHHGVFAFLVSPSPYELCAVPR
CYP2C19, sequence (P33261 whole entry): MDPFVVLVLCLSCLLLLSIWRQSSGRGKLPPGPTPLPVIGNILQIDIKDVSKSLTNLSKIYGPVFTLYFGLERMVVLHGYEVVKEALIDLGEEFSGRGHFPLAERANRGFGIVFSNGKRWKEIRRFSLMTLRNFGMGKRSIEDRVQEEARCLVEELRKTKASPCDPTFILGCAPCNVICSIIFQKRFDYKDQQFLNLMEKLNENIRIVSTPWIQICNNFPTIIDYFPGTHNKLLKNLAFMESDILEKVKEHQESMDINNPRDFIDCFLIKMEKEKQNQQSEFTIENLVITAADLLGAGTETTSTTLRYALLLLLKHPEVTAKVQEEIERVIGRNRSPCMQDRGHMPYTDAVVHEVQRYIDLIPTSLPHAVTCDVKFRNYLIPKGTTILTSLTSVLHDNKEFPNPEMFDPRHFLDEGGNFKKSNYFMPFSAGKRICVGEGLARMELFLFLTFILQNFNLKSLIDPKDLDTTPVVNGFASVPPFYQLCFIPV

Compound: COCCO[C@H]1CC[C@H](NC(=O)c2cc(-c3ccccn3)cc3cc[nH]c23)CC1
- IC50 [1]: > 100 µM

Compound: COCCO[C@H]1CC[C@H](NC(=O)c2cc(-c3cccnn3)cc3cc[nH]c23)CC1
- IC50 [1]: > 100 µM

Compound: COCCO[C@H]1CC[C@H](NC(=O)c2cc(-c3cscn3)cc3cc[nH]c23)CC1
- IC50 [1]: > 100 µM

Compound: COCCO[C@H]1CC[C@H](NC(=O)c2cc(-c3cnn(C)c3)cc3cc[nH]c23)CC1
- IC50 [1]: > 100 µM

Now from value to molecule, other results behind:

- IC50 [1]: 6 µM
Compound: COCCO[C@H]1CC[C@H](CNC(=O)c2cc(-c3cncs3)cc3[nH]ccc23)CC1

- half-life [2]: 72 min
- inhibition at 10 µM (CYP2D6): < 15%
- Papp B→A [3]: 29.6 ×10⁻⁶ cm/s
- half-life [4]: 180 min
- Cmax [5]: 9.91 ng/mL
- solubility thermodynamic [6]: 10 µg/mL (≈ 25 µM)
- t1/2 [9]: 3 h
- EC50 [10]: 40 nM
- fraction unbound [11]: 0.047
- half-life [12]: 162 min
- IC50 [13]: 70 nM
- Papp A→B [14]: 17.5 ×10⁻⁶ cm/s
- AUC [15]: 1295 ng·h/mL
- Activity [17]: Dde
- fraction unbound [19]: 0.206
- inhibition at 10 µM (CYP2C19): < 15%
- Cmax [20]: 710 ng/mL
- AUC [21]: 10400 ng·h/mL
- Vdss [22]: 9 L/kg
- AUC [23]: 60400 ng·h/mL
- AUC [24]: 1740 ng·h/mL
- Vdss [25]: 1.1 L/kg
- AUC [26]: 10400 ng·h/mL
- solubility kinetic [27]: 25 µM (≈ 10 µg/mL)
- Vd [28]: 0.9 L/kg
- inhibition at 10 µM (CYP1A2): < 15%
- EC50 [29]: 181 nM
- Activity [31]: Dde
- inhibition at 10 µM (CYP2C9): < 15%
- AUC [32]: 4810 ng·h/mL
- IC50 [34]: 3 nM
- fraction unbound [35]: 0.209
- inhibition at 10 µM (CYP2C8): < 15%
- half-life [36]: 186 min
- AUC [37]: 1670 ng·h/mL
- bioavailability [38]: 100%
- t1/2 [40]: 1 h
- Cmax [41]: 4230 ng/mL
Compound: COCCO[C@H]1CC[C@H](NC(=O)c2cc(-c3cncs3)nc3[nH]ccc23)CC1
- inhibition (Mus musculus [7]): Active
- inhibition (Mus musculus [8]): Active
- inhibition (Mus musculus [16]): Active
- inhibition (Mus musculus [18]): Active
- inhibition at 10 µM (hERG): < 10%
- inhibition (Mus musculus [30]): Active
- inhibition (Mus musculus [33]): Active
- inhibition (Mus musculus [39]): Active
- inhibition (Mus musculus [42]): Active

- IC50 [1]: > 100 µM
Compound: COCCO[C@H]1CC[C@H](NC(=O)c2cc(-c3cncs3)cn3ccnc23)CC1

- AUC [26]: 6980 ng·h/mL
Compound: COCCO[C@H]1CC[C@H](NC(=O)c2cc(-c3cncs3)cc3[nH]ccc23)CC1
